Measured values from patent US20260374739A1, “SMALL MOLECULAR WEIGHT CHEMICAL COMPOUND TO ANTAGONIZE EPH-EPHRIN TETRAMERIZATION AND INHIBIT BIDIRECTIONAL SIGNALING” (THE BOARD OF REGENTS OF THE UNIVERSITY OF TEXAS SYSTEM, priority 2022, published 2026).
“Also recorded” adds a separate entry of the source.

Assays:
[1] = target: T1, EphB2-His-Fc / EB2-His (Mus musculus, UniProt P54763); assay: pulldown EB2-His to EphB2-His-Fc; assay type: binding
T1 construct: a dual-tagged EphB2-His-Fc ectodomain protein; mouse EB2-His residues 18-232; purchased R&D Systems (EphB-Fc); Sino Biologicals (EphrinB-His)
T1 sequence (P54763 19-543 limits assumed): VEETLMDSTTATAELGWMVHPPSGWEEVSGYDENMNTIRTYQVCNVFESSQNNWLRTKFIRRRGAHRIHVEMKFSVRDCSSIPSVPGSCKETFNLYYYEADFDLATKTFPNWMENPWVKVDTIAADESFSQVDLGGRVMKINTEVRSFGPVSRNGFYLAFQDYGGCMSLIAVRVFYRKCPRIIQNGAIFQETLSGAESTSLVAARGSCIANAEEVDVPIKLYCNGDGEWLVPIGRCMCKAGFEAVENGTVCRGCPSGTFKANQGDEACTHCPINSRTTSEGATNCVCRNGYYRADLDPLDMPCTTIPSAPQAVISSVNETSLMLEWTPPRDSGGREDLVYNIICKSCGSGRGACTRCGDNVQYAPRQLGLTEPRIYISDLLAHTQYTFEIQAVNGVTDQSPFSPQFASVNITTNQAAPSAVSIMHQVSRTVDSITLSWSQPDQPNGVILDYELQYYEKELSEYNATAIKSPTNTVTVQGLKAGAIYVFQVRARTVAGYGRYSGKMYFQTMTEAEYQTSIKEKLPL

[2] = tested on: CFA-induced mechanical pain in mice; assay: CFA inflammatory pain, mechanical; assay type: in vivo, mouse; conditions: IP or PO 20 mg/kg
Procedure: The week prior to injection of CFA, adult mice (>10 weeks age, male or female) were first acclimated to the chambers used in pain assessments and then their left and right hind paws were subjected to thermal (heat) and mechanical (touch) pain measurements to obtain baseline data. Mechanical pain was assessed by placing mice on a wire grid and repeatably testing hind paws for their sensitivity to von Frey (VF) filaments of different stiffnesses with the mechanical withdrawal threshold for each mouse hind paw defined as the minimum gauge filament needed to elicit a reflex. Thermal pain was assessed by placing mice on a glass surface and subjecting their hind paws to an infrared heat source (Hargreaves device) that is connected to a timer to measure how long the animal takes to notice the heat and lift the paw. In these tests, both hind paws of mice were subjected to multiple measurements over a 2-3 hr period to (1) either narrow down the VF filament stiffness threshold to plot the touch pain or (2) to obtain six good thermal response measurements which are averaged to provide the data points for heat pain. […] A total of 12 mice were assessed in any one experiment. […]

[3] = target: T2, EphB1-Fc / EB2-His (Rattus norvegicus, UniProt P09759); assay: pulldown EB2-His to EphB1-Fc; assay type: binding, mouse EB2; conditions: 50 and 250 μM for A20; listed as A20
T2 construct: mouse (Mus musculus) EB2-His ectodomain, pulldown
T2 sequence (P09759 18-538): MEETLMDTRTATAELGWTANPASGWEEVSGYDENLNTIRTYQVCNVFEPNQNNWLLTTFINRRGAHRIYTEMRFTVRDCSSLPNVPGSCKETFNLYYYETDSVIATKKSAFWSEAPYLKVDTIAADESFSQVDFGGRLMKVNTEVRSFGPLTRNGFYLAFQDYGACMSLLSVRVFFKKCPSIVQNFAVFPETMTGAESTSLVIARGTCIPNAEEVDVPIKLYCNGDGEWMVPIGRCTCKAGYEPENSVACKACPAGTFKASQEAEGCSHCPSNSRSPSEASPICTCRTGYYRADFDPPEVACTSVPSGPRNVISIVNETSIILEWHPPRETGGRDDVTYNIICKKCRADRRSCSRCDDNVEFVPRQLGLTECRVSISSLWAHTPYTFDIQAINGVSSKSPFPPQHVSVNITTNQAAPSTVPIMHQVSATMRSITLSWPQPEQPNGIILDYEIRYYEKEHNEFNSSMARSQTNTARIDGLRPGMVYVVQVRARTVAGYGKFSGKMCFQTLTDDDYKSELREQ
From the text: A20, E13, and other compounds from the top 32 hits were then characterized in pulldown assays. EphB1-Fc was immobilized onto Protein A agarose beads, then mixed with compounds and the soluble EB2-His ectodomain for 1 hr at RT, after which protein complexes were washed and then bound EB2 was detected by immunoblot using anti-His antibodies.

[4] = target: pre-formed EphrinB2-EphB2 tetramer (Homo sapiens, UniProt P29323); assay: Octet competition of pre-existing tetramers, human EphrinB2-EphB2; assay type: binding; conditions: 2, 10, 50 μM
Chain of pre-formed EphrinB2-EphB2 tetramer (P29323 19-543 limits assumed): as the sequence (P54763 19-543 limits assumed) above, with L104S, N154S, K520Q counted along it
Procedure: Biophysical studies were conducted to explore if A20 is able to disrupt pre-existing stable tetramers, focusing on interactions of immobilized human EphrinB2 binding to soluble human EphB1 and EphB2, and immobilized mouse EphB2 binding to mouse EphrinB2 (FIGS. 29A-29C). In these experiments, sensor-chip immobilized proteins were first exposed to 50 nM of their soluble target protein for an 800 sec association step and 1,000 sec dissociation step to generate pre-formed stable tetramers, which were then subjected to a 1,000 sec competition step that included either 0, 2, 10, or 50 μM concentrations of A20 salt compound. […] The ability of A20 to disrupt pre-existing tetramers was most pronounced for human EB2-EphB2 and cognate murine EphB2-EB2 experiments and indicated a gradual ongoing dose-dependent decline in tetramers throughout the 1,000 sec competition step (and beyond if allowed) and irrespective of whether the human EphrinB2 or murine EphB2 was the immobilized protein.

[5] = target: EphrinB1-EphB2 (Homo sapiens, UniProt P29323); assay: Octet, immobilized human EphrinB1 binding to human EphB2
Chain of EphrinB1-EphB2 (P29323 19-543 limits assumed): as the sequence (P54763 19-543 limits assumed) above, with L104S, N154S, K520Q counted along it
Procedure: Studies were conducted to confirm that A20 chemicals can effectively target the human Eph/Ephrin proteins. Octet system was used to first characterize the biophysical interactions of the human B class Eph and Ephrin proteins, and then was tested to assess how A20 may disrupt the interactions. Since the human and rodent proteins are highly conserved, and essentially identical, with EphB2 sharing 99.5% identity between human and mouse, with only 5 of ~1,000 amino acids different, any species-specific differences were not anticipated. Therefore, commercially available human EphrinB1-Fc (EB1), EphrinB2-Fc (EB2), and EphrinB3-Fc (EB3) ectodomain proteins were sparsely immobilized onto biosensors and then exposed to 50 nM of soluble human EphB1-His, EphB2-His, and EphB4-His ectodomains for 800 sec association and 1,000 sec dissociation steps with a total of nine different interactions analyzed. In the absence of A20 chemical, the immobilized human EphrinB proteins bound to their appropriate human EphB target proteins; with EphrinB1 only bound EphB1 and EphB2, EphrinB2 bound all three EphB1, EphB2, and EphB4, and EphrinB3 only bound EphB1 and EphB2 (FIG. 19A-19B).
Addition of compound also altered dissociation kinetics. […] This is referred to as the “unsurmountable” component of the Eph-Ephrin interaction (FIG. 21C). Additionally, AUC data was graphed for these runs (FIG. 21D). […]

[6] = tested on: EphB2 tyrosine kinase, Cos1 cells; assay: EphB2 kinase activation by pre-clustered EB2-Fc in Cos1 cells, immunoblot; assay type: cell-based; conditions: 30 min, listed as A20
Procedure: To assess if A20 would reduce the ability of EphrinB2 to stimulate activation of the EphB tyrosine kinase domain in live cells, Cos1 cells that express endogenous EphB2 were exposed to pre-clustered EB2-Fc ectodomains in the presence or absence of A20 for 30 min. […] Stimulated cells were fixed on the coverslip and subjected to immunofluorescence (IF) with anti-Fc antibodies to detect ligand protein bound to receptor, which leads to formation of circular Eph-Ephrin tetramers that then cluster into large obvious spots on the cell surface by lateral migration through the plasma membrane and also contain anti-phosphotyrosine signal indicating activation of the receptor's kinase domain.

Oc1c(Br)cc(CN2CCOCC2)c2cccnc12 [Compound 5, 7-bromo-5-(morpholinomethyl)quinolin-8-ol]
pulldown EphB2 binding to EB2-His [1]: strong dose-dependent ability to antagonize EphB2-His-Fc protein binding to EB2-His | IC50 ([1]; pulldown, EphB2): ~10 µM | mechanical pain [2]: no increased sensitivity to the VF filaments on average | mechanical pain ratio ([2]; vehicle 2-3): 1 | pulldown EB2-His binding to EphB1-Fc [3]: strongly reduced EB2-His binding to EphB1-Fc; also recorded: reduces the ability of soluble EB2-His to bind to immobilized EphB1-Fc | competition of pre-formed tetramers [4]: able to compete away in a dose-dependent manner a significant amount of the stable pre-formed tetramer complexes | inhibition at 1 µM ([5]; EB1-EphB2, A20, read-out: reduction of tetramers): ~45% | IC (maximum) ([5]; read-out: concentration producing maximum inhibition): 1 µM | EphB2 kinase activity [6]: caused a dose-dependent reduction in EphB2 kinase activity; also recorded: antagonizes EB2 stimulation of EphB2 catalytic activity
